The values below are quoted from earlier work in PMC8201747, “Cell Permeability of Isomeric Macrocycles: Predictions and NMR Studies” (ACS Medicinal Chemistry Letters, 2021).

The data set has as its system Caco-2 cell monolayer. As to conditions: Table S17, reported previously, ref 13 (SI); for ER (efflux ratio): Caco-2.

As for `CO[C@H]1CN(C)C(=O)c2cc(C#N)ccc2OC[C@@H]2O[C@H](CC[C@H]2OC)CCN(C)C(=O)[C@@H]1C` [Macrocycle 5], the “ER (efflux ratio)” value was 1.40 and the “Permeability (passive permeability across a Caco-2 cell monolayer, Papp AB+inhibitor cocktail)” value was 1.89 ×10⁻⁶ cm/s.

As for `CO[C@@H]1CC[C@@H]2CCN(C)C(=O)[C@H](C)[C@H](OC)CN(C)C(=O)c3cccc(C#N)c3OC[C@@H]1O2` [Macrocycle 6], the “ER (efflux ratio)” value is on record as 0.81 and the “Permeability (passive permeability across a Caco-2 cell monolayer, Papp AB+inhibitor cocktail)” value was 23.08 ×10⁻⁶ cm/s.

Take `CO[C@H]1CN(C)C(=O)c2cccc(C#N)c2OC[C@@H]2O[C@H](CC[C@H]2OC)CCN(C)C(=O)[C@@H]1C` [Macrocycle 7]: the “ER (efflux ratio)” value was 0.78 and the “Permeability (passive permeability across a Caco-2 cell monolayer, Papp AB+inhibitor cocktail)” value is 6.36 ×10⁻⁶ cm/s.
